# Test results as given in patent US4265886A, “Spiroketalins and their applications” (Roecar Holdings (Netherlands Antilles (NV), priority 1978, dated 1981).
# Where two headings read alike, the source gives them in different places.
# Experiments:
# [1] = tested on: erysipelas-induced arthritis (corneal lesions); assay: erysipelas-induced arthritis in the rat: corneal lesions (opaquacy); assay type: in vivo, rat (male Wistar); conditions: for CORNEAL LESIONS Degree of severity: 3×10 mg/kg per day, 5× per week, control 2,34; for CORNEAL LESIONS Present in % of rats, day 1: control 0; for CORNEAL LESIONS Present in % of rats, day 6 / CORNEAL LESIONS Present in % of rats, day 8 / CORNEAL LESIONS Present in % of rats, day 12 / CORNEAL LESIONS Present in % of rats, day 15 / CORNEAL LESIONS Present in % of rats, day 19 / CORNEAL LESIONS Present in % of rats, day 20: control 100
# Description: (§1) The investigation was carried out according to Schulze et al (17 in Betr. Path., 1975, 154, 1-26 and 27-51). Erysipelas arthritis is reproducible in nearly 100% of the rats given a single subcutaneous injection of E. insidiosa. Erysipelas arthritis always afflicts several joints with the same intensity in both major and minor limb joints, besides the coagulopathy and the pathological changes produced in the cardio-vascular system. Proliferating processes occur after 3 months in all surviving animals subjected to experimental erysipelas arthritis.
# (§2) In order to test the spiroketalins of this invention the following parameters of the erysepilas arthritis model were used to evaluate their activities:
# Inflammation opaquacy appears in the cornea around the 8th day.
# (§3) Male Wistar rats between 155-185 g were used for these trials. The animals, kept in single cages, received a standard rat diet (Ssniff R) and water ad libitum. Room temperature was kept at 22° C., and the relative humidity varied between 50-60%. Daily illumination lasted for 12 hours. The animals had been acclimatized for 10 days prior to the commencement of the investigation.
# (§4) An erysopelothrix insidiosa serotype B-strain T28 was used to challenge the animals and a single 2 ml dose (ca 100-200 million germs) was administered subcutaneously. The examined spiroketalins were suspended in sterile physiological saline and administered at the rate of 3×10 mg/kg per day. Treatment continued from the day of challenge, either to the end of the trial or the death of an animal, at the rate of 5×per week.
# [2] = tested on: erysipelas-induced arthritis (aortic thrombi); assay: erysipelas-induced arthritis in the rat: aortic thrombi; assay type: in vivo, rat (male Wistar); conditions: 3×10 mg/kg per day, 5× per week; for AORTIC THROMBI Present in % of rats: control 90; for AORTIC THROMBI Degree of severity: key 0=No change, 1=Very slight, 2=Slight to medium, 3=Medium to severe, 4=Severe changes, control 2,60 (± 1,35)
# Description: as §1, §2
# Fibrin-rich thrombi develop on aorta intima between the 6th and 11th day. The largest spread extended area can be observed around the 8th day.
# as §3, §4
# The parameters for aorta thrombi have been evaluated according to the following key originally described by Schulz et al. Beitrag. Path., 154, 1-26 and 27-51, 1975.
# KEY FOR CLINICAL AORTA THROMBI FINDINGS
# 2=Slight to medium changes
# 3=Medium to severe changes
# [3] = tested on: yeast-induced hind paw oedema; assay: yeast-induced acute paw oedema in rats; assay type: in vivo, rat; conditions: 500-1000 mg/kg orally or 50-100 mg/kg intraperitoneally, 24 hours before 2% yeast suspension
# Description: The oral effectiveness of an anti-inflammatory agent is readily shown by administering it to animals (e.g. rats) either orally or parenterally before one of their hind paws is injected with a solution or suspension of an inflammation inducing substance such as kaolin, egg white, formaldehyde, carageenin or yeast. […] Distinct reductions in the acute oedema formation of between 10-40% were observed depending on the dose and route of administration. In order to achieve such reduction with the glucosides of diosgenin, hecogenin and tigogenin doses of 500-1000 mg/kg body mass orally or 50-100 mg/kg intraperitoneally had been administered, 24 hours before the animals were challenged with fresh 2% yeast suspension in physiological saline.
# Sprague-Dawley rats [4] = assay: 100 day feeding study, 0,1% in standard laboratory chow; assay type: in vivo, rat (male Sprague-Dawley); conditions: for mortality: 100 day observation period
# Source text: (b) Standard laboratory chow was thoroughly mixed with 0,1% diosgenyl glucoside or hecogenyl glucoside and the mixtures were fed to groups of 20 young male Sprague-Dawley rats weighing approximately 150 g. […] Ten rats from each group were autopsied and the organs and some body tissues examined by macroscopic and microscopic techniques.
# physchem = conditions: water
# Sprague-Dawley rats [5] = assay: single oral dose animal toxicity, 14 day observation; assay type: in vivo, rat (male Sprague-Dawley); conditions: single oral doses of 125,0; 312,5; 625,0 and 1250 mg/kg
# Description: Individually housed groups of ten male Sprague-Dawley rats were treated orally with single doses of hecogenin 3-β-D-glucoside or diosgenin 3β-D-glucoside. The poorly water soluble test substances were made up in an aqueous Tylose^R dispersion for homogeneity.
# A suitable concentration which allowed the administration of the relevant dose at the rate of 1,0 ml/100 g body weight was prepared immediately before use. Doses ranging from 125 mg/kg to 1250 mg/kg of the agents were tested. The observation period was 14 days after which the animals were sacrificed and a macroscopic examination of some tissues was carried out. Food and water was offered ad libitum.
# haemolysis = conditions: cited from earlier work
# [6] = rats, rabbits and chickens; cited from earlier work
# [7] = tested on: rats, rabbits and chickens; conditions: cited from earlier work
Compound,CORNEAL LESIONS Degree of severity [1],"CORNEAL LESIONS Present in % of rats, day 1 [1]","CORNEAL LESIONS Present in % of rats, day 6 [1]","CORNEAL LESIONS Present in % of rats, day 8 [1]","CORNEAL LESIONS Present in % of rats, day 12 [1]","CORNEAL LESIONS Present in % of rats, day 15 [1]","CORNEAL LESIONS Present in % of rats, day 19 [1]","CORNEAL LESIONS Present in % of rats, day 20 [1]",AORTIC THROMBI Present in % of rats [2],AORTIC THROMBI Degree of severity [2],reduction in acute oedema formation [3],"mortality (Sprague-Dawley rats [4]; 0,1% in chow)",other results
"CC[C@H](CC[C@@H](C)[C@H]1CC[C@H]2[C@@H]3CC=C4C[C@@H](O[C@@H]5O[C@H](CO)[C@@H](O)[C@H](O)[C@H]5O)CC[C@]4(C)[C@H]3CC[C@]12C)C(C)C [Sitosteryl-β-D-Glucoside, reference compound]","1,20",20%,90%,100%,100%,17%,25%,0%,70%,"2,00 (± 1,63)",–,–,–
"C[C@@H]1CC[C@@]2(OC1)O[C@H]1C[C@H]3[C@@H]4CC[C@H]5C[C@@H](O[C@@H]6O[C@H](CO)[C@@H](O)[C@H](O)[C@H]6O)CC[C@]5(C)[C@H]4CC[C@]3(C)[C@H]1[C@@H]2C [Tigogenyl Glucoside, tigogenyl β-D-glucoside]",–,–,–,–,–,–,–,–,–,–,10-40%,–,–
"C[C@@H]1CC[C@@]2(OC1)O[C@H]1C[C@H]3[C@@H]4CC[C@H]5C[C@@H](O[C@@H]6O[C@H](CO)[C@@H](O)[C@H](O)[C@H]6O)CC[C@]5(C)[C@H]4CC(=O)[C@]3(C)[C@H]1[C@@H]2C [Hecogenyl Glucoside, hecogenyl β-D-glucoside]","0,89",0%,"87,5%",100%,100%,100%,20%,0%,50%,"1,38 (± 1,51)",10-40%,No mortality occurred,"drug-related pathological changes (Sprague-Dawley rats [4]; 0,1% in chow, autopsy, macroscopic and microscopic): No drug-related pathological changes were detected in any tissues; solubility (physchem): ~5 µg/mL; tolerability (Sprague-Dawley rats [5]): well tolerated; in vitro haemolytic effects (haemolysis): without showing the usual in vitro haemolytic effects"
C[C@@H]1CC[C@@]2(OC1)O[C@H]1C[C@H]3[C@@H]4CC=C5C[C@@H](O)CC[C@]5(C)[C@H]4CC[C@]3(C)[C@H]1[C@@H]2C [diosgenin],–,–,–,–,–,–,–,–,–,–,–,–,serum cholesterol levels [6]: lowers the serum cholesterol levels; toxicity [7]: non-toxic
"C[C@@H]1CC[C@@]2(OC1)O[C@H]1C[C@H]3[C@@H]4CC=C5C[C@@H](O[C@@H]6O[C@H](CO)[C@@H](O)[C@H](O)[C@H]6O)CC[C@]5(C)[C@H]4CC[C@]3(C)[C@H]1[C@@H]2C [Diosgenyl Glucoside, diosgenyl β-D-glucoside]","1,05",0%,"85,7%",100%,100%,50%,25%,0%,44%,"1,33 (± 1,66)",10-40%,No mortality occurred,"drug-related pathological changes (Sprague-Dawley rats [4]; rat, in vivo): No drug-related pathological changes were detected in any tissues; solubility (water solubility; 25° C.): ~5 µg/mL; solubility (water solubility; room temperature, colloidal solution): 5 µg/mL; in vitro haemolytic effects (haemolysis; in vitro, reference (6)): without showing the usual in vitro haemolytic effects"
